Measured values reported in patent US11773062B2, “Deuterated compounds” (priority 2021, dated 2023).

How the values were obtained:
[1] = tested on: mouse (male CD-1) hepatocytes; assay: In vitro mouse hepatocytic intrinsic clearance; conditions: mouse CD-1 hepatocytes 0.367 million cells/mL, 5 μM (Table 8)
[2] = tested on: human (mixed gender) hepatocytes; assay: In vitro intrinsic clearance in human hepatocytes with and without MAO-A/B inhibitor combination (first experiment); conditions: for % change in half-life, MAO inhibitors vs no inhibitors / % change in intrinsic clearance, MAO inhibitors vs no inhibitors: human hepatocytes (Table 5)
Procedure: Standard final incubation conditions are 1 μM compound in buffer containing nominally ˜0.5 million viable cells/mL, ˜0.9% (v/v) acetonitrile (MeCN) and ˜0.1% (v/v) DMSO (specific assay concentrations outlined above, section 2).
Samples are then centrifuged at 4° C.

[3] = Human liver mitochondrial fraction intrinsic clearance of SPL026, SPL028i, SPL028iii, SPL028viii; assay type: in vitro ADME; conditions: 0.5 mg/mL human liver mitochondrial fraction (Table 10)
Description: Human Liver Mitochondrial (HLMt) fractions contain high quantities of MAO enzymes and therefore, provide a useful tool to measure the clearance of MAO substrates.

CYP2C19 = CYP2C19 (Homo sapiens, UniProt P33261); assay: in vitro; conditions: human, recombinant enzyme, pH 7.4
Sequence of CYP2C19 (P33261 whole entry): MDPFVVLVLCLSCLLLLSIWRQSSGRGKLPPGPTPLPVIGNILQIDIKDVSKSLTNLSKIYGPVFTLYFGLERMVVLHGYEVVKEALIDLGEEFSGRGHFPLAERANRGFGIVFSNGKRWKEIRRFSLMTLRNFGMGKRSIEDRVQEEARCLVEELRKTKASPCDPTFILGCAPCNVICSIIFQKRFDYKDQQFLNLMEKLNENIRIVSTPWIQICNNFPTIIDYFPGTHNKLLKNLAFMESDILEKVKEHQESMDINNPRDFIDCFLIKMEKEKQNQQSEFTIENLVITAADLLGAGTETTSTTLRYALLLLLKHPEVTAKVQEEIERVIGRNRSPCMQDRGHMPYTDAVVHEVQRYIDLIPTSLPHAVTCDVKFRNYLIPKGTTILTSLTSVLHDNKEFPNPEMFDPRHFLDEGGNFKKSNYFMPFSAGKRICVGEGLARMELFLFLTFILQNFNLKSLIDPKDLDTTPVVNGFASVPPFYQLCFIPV
Procedure: (§1) Samples were taken at predetermined time points.
(§2) Samples were then centrifuged at −4° C.
(§3) Positive control markers are as specified in Table 11.

CYP1A2 = biological target: T1, CYP1A2 (Homo sapiens, UniProt P05177); assay: in vitro; conditions: human, recombinant enzyme, pH 7.4
T1 sequence (P05177 1-516): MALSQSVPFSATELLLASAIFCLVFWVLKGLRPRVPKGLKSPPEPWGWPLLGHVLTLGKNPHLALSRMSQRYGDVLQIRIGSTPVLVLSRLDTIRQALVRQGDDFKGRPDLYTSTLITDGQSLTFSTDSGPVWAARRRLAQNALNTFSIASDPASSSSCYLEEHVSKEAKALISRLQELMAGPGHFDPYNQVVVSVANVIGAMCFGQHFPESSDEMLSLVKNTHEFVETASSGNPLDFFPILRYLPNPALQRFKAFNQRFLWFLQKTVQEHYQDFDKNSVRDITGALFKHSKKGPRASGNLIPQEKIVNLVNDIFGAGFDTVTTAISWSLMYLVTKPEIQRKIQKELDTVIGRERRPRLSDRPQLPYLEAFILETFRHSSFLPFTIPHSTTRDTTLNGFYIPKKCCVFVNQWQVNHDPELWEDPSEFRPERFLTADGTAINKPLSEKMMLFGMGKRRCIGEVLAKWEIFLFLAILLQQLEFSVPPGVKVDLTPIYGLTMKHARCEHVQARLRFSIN
Procedure: as §1, §2, §3

CYP3A5 = CYP3A5 (Homo sapiens, UniProt P20815); assay: in vitro; conditions: human, recombinant enzyme, pH 7.4
Sequence of CYP3A5 (P20815 whole entry): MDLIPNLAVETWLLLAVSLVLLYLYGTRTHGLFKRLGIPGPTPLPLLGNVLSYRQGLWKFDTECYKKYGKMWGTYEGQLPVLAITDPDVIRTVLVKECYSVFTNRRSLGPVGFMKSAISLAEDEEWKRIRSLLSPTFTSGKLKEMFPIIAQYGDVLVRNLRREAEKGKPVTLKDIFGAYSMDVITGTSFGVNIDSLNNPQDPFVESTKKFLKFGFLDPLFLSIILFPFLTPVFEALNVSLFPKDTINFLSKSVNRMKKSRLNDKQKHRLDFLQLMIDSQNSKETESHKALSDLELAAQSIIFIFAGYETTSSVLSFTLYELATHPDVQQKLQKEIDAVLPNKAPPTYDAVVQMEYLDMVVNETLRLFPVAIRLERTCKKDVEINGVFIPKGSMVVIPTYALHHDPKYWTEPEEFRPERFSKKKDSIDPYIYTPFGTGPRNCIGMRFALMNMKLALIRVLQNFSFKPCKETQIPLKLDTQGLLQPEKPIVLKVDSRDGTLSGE
Procedure: as §1, §2, §3

CYP3A4 = CYP3A4 (Homo sapiens, UniProt P08684); assay: in vitro; conditions: human, recombinant enzyme, pH 7.4
Sequence of CYP3A4 (P08684 whole entry): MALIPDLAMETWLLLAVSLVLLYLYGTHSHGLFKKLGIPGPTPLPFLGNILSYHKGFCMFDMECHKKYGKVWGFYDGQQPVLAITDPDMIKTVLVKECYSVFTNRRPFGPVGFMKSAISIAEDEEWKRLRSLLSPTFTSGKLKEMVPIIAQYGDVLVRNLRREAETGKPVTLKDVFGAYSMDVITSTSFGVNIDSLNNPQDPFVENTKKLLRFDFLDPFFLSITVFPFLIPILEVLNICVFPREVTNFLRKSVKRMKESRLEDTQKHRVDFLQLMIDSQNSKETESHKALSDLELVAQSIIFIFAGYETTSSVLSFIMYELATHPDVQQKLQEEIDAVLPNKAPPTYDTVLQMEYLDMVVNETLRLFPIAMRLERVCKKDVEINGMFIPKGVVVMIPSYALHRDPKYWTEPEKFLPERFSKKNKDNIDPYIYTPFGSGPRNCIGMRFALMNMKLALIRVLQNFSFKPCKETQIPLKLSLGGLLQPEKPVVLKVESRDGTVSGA
Procedure: as §1, §2, §3

CYP2C8 = biological target: T2, CYP2C8 (Homo sapiens, UniProt P10632); assay: in vitro; conditions: human, recombinant enzyme, pH 7.4
T2 sequence (P10632 1-490): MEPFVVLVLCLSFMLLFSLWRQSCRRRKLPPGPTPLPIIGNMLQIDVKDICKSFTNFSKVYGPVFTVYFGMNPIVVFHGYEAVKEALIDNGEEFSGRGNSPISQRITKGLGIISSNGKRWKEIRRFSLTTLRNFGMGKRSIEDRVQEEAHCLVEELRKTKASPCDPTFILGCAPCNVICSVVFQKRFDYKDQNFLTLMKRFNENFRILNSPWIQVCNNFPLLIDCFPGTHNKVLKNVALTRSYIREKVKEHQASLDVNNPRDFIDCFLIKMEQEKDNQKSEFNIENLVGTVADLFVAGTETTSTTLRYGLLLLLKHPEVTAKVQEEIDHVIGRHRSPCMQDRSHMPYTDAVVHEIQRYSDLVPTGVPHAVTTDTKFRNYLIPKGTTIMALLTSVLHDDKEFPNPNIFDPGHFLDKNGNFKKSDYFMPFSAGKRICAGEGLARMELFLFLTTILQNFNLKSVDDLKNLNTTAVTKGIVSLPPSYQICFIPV
Procedure: as §1, §2, §3

[4] = human hepatocytes, with 100 nM clorgyline + 100 nM deprenyl/selegiline (Table 3)
[5] = human hepatocytes, with MAO-A/B inhibitor combination (Table 5)
[6] = human hepatocytes, with MAO-A/B inhibitors (Table 4; unit given only in Table 5)
[7] = human hepatocytes, without MAO-A/B inhibitor combination (Table 5)

Compound | w Half-life [1] [min] | w Intrinsic clearance [1] [μL/min/million cells] | % change in half-life, MAO inhibitors vs no inhibitors [2] [%] | % change in intrinsic clearance, MAO inhibitors vs no inhibitors [2] [%] | Intrinsic clearance, with inhibitors [2, 4] [μL/min/million cells] | Intrinsic clearance, with inhibitors [2, 5] [μL/min/million cells] | Intrinsic clearance, without inhibitors [2, 7] [μL/min/million cells] | further results
[2H]C([2H])(Cc1c[nH]c2ccccc12)N(C)C [SPL028iv, α,α,-bis-deuterium-N,N-dimethyltryptamine] | 17.7 | 106.9 | 31.74 | −49.33 | 7.46 | 7.46 | 11.14 | change in intrinsic clearance with the inclusion of MAO inhibitors ([2]; human hepatocytes): 49%; Half-life, with inhibitors [2, 5]: 171.17 min; Half-life, with inhibitors [2, 6]: 171.17 min
[2H]C([2H])(Cc1c[nH]c2ccccc12)N(C)C [SPL028v, α,α,-bis-deuterium-N,N-dimethyltryptamine] | 16.1 | 117.7 | 11.47 | −15.56 | 9.51 | 9.51 | 10.99 | 
[2H]C([2H])(Cc1c[nH]c2ccccc12)N(C)C [SPL028iii, α,α,-bis-deuterium-N,N-dimethyltryptamine] | 17.9 | 106.2 | 25.93 | −35.65 | 6.90 | 6.9 | 9.36 | Intrinsic Clearance [3]: 15.0 μL/min/mg protein; half-life [3]: 31.1 min; Half-life, with inhibitors [2, 5]: 189.6 min; Half-life, with inhibitors [2, 6]: 189.60 min
[2H]C([2H])([2H])N(C([2H])([2H])[2H])C([2H])([2H])Cc1c[nH]c2ccccc12 [SPL028viii, α,α,bis-deuterio-N,N-hexadeuterio-dimethyltryptamine] |  |  |  |  |  |  |  | Intrinsic Clearance [3]: 10.9 μL/min/mg protein
CC(C)NCC(O)COc1cccc2ccccc12 (centres unmarked) [Propranolol, reference compound] |  |  |  |  |  |  |  | half-life (CYP2C19): 12 min
[2H]C([2H])(Cc1c[nH]c2ccccc12)N(C)C [SPL028vi, α,α,-bis-deuterium-N,N-dimethyltryptamine] | 16.6 | 114.0 | 20.55 | −26.41 | 10.79 | 10.79 | 13.64 | Half-life, without inhibitors ([2]; human hepatocytes, without MAO inhibitors (Table 4; unit given only in Table 5)): 95.04 min; Half-life, without inhibitors [2, 7]: 95.04 min
Nc1c2c(nc3ccccc13)CCCC2 [Tacrine, reference compound] |  |  |  |  |  |  |  | half-life (CYP1A2): 37 min; intrinsic clearance, CYP isoform 1A2 (CYP1A2): 189 μL/min/nmol CYP
Cc1ncc2n1-c1ccc(Cl)cc1C(c1ccccc1F)=NC2 [Midazolam, reference compound] |  |  |  |  |  |  |  | half-life (CYP3A5): 11 min; intrinsic clearance, CYP isoform 3A5 (CYP3A5): 623 μL/min/nmol CYP; half-life (CYP3A4): 5 min; intrinsic clearance, CYP isoform 3A4 (CYP3A4): 1369 μL/min/nmol CYP
CC(C)(O)c1ccccc1CC[C@@H](SCC1(CC(=O)O)CC1)c1cccc(/C=C/c2ccc3ccc(Cl)cc3n2)c1 [Montelukast, reference compound] |  |  |  |  |  |  |  | half-life (CYP2C8): 62 min; intrinsic clearance, CYP isoform 2C8 (CYP2C8): 122 μL/min/nmol CYP
